Measured values as given in patent US10168342B2, “Lipid probes and uses thereof” (THE SCRIPPS RESEARCH INSTITUTE, priority 2015, dated 2019).
Like-named read-outs stand apart in the source and are kept apart here.

Experiments:
[1] = target: AEA-DA lipid probe targets in Neuro2a cells (Mus musculus, UniProt O89079)
[2] = target: T1, AEA-DA lipid probe targets in Neuro2a cells (Mus musculus, UniProt Q9D1D4)
T1 sequence (Q9D1D4 32-219): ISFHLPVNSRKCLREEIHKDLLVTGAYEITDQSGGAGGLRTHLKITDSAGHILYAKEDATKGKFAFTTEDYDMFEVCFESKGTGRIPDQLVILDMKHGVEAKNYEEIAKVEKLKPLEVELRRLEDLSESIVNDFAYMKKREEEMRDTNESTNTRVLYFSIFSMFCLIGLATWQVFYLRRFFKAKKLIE

[3] = target: T2, AEA-DA lipid probe targets in Neuro2a cells (Mus musculus, UniProt Q99JH8)
T2 sequence (Q99JH8 1-212): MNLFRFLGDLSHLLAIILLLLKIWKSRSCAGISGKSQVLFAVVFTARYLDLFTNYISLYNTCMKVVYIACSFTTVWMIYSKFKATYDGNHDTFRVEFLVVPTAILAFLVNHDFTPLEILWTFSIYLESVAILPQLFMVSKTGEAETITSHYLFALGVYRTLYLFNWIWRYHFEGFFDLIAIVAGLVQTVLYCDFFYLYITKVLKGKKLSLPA

[4] = target: T3, AEA-DA lipid probe targets in Neuro2a cells (Mus musculus, UniProt Q924Z4); settings: for SILAC ratio, CERS2 (Q924Z4): Neuro2a cells, AEA-DA probe
T3 sequence (Q924Z4 1-380): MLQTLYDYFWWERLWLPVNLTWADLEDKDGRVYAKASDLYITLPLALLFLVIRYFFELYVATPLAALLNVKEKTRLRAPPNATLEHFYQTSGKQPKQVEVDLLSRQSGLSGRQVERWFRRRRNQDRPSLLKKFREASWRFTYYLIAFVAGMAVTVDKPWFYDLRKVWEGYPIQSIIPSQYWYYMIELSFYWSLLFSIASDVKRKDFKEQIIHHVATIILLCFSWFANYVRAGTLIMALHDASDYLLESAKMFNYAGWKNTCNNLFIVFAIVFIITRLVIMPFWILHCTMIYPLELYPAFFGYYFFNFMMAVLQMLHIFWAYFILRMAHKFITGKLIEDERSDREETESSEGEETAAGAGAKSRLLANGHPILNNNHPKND

[5] = target: T4, AEA-DA lipid probe targets in Neuro2a cells (Mus musculus, UniProt Q91XD7)
T4 sequence (Q91XD7 30-420): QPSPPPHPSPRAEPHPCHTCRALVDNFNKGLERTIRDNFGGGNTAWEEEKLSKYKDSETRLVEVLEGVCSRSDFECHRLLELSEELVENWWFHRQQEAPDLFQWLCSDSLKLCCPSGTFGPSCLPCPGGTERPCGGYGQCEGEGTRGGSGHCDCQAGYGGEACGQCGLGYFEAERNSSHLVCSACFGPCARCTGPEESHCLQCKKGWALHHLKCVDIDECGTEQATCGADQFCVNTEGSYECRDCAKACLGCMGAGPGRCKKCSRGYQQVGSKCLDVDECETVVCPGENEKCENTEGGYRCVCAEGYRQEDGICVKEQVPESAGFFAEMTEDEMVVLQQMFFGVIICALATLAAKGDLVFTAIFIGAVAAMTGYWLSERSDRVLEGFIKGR

[6] = target: T5, AEA-DA lipid probe targets in Neuro2a cells (Mus musculus, UniProt O88455)
T5 sequence (O88455 1-471): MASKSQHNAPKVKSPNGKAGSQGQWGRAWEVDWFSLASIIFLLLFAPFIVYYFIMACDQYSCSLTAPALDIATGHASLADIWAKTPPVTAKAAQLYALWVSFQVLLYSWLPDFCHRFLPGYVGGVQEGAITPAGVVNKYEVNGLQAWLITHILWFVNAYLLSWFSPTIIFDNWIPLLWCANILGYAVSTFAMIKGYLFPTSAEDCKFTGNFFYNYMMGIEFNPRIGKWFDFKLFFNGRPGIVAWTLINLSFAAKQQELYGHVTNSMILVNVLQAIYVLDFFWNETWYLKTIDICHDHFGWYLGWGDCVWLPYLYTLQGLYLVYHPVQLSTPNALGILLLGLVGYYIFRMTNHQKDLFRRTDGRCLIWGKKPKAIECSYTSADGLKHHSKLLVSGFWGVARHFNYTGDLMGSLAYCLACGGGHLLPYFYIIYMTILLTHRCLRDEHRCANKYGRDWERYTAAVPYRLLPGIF

[7] = target: T6, AEA-DA lipid probe targets in Neuro2a cells (Mus musculus, UniProt Q9ES97)
T6 sequence (Q9ES97 1-964): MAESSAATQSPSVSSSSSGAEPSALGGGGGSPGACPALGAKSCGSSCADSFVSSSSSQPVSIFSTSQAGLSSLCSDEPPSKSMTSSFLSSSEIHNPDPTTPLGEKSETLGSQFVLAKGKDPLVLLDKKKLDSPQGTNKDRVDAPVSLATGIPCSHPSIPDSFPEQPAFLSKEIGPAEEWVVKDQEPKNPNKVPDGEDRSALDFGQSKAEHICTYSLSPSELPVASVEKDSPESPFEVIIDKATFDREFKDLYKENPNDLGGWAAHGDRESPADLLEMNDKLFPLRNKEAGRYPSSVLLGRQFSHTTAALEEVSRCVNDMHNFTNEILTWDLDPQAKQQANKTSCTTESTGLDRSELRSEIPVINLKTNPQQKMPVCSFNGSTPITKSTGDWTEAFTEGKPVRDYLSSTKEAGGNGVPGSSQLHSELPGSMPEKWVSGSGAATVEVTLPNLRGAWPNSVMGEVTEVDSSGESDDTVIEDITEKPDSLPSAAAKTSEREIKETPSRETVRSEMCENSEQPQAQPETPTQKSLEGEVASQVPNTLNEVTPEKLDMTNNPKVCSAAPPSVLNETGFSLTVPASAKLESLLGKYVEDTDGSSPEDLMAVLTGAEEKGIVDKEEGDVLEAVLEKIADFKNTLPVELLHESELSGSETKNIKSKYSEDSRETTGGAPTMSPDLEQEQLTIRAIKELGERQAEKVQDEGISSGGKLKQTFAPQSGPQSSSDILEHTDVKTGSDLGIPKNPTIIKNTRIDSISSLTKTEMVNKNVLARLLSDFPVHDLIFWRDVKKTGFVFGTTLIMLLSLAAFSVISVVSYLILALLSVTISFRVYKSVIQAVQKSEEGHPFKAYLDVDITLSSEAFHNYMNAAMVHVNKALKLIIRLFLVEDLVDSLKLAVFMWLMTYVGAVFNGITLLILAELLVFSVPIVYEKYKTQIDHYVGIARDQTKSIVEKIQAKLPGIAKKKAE

Chain of AEA-DA lipid probe targets in Neuro2a cells (Mus musculus, UniProt O89079) (O89079 whole entry): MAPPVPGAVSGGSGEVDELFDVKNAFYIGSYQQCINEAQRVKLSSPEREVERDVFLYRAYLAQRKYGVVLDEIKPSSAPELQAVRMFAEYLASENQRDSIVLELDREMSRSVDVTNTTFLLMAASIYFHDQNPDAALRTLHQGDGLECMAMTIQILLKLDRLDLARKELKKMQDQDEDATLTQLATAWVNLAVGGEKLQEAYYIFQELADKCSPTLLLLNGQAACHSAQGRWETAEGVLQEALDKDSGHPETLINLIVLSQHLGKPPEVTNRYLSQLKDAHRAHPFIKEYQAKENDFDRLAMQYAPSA

| Compound | SILAC ratio Cope ([1]; competitor 25 μM) | SILAC ratio, Tmed10 ([2]; competitor 25 μM) | SILAC ratio Kdelr1 ([3]; competitor 25 μM) | SILAC ratio, CERS2 (Q924Z4) ([4]; competitor 25 μM) | SILAC ratio, Cers2 ([4]; competitor 25 μM) | SILAC ratio, Creld1 ([5]; competitor 25 μM) | SILAC ratio Dhcr7 ([6]; competitor 25 μM) | SILAC ratio, Rtn3 ([7]; competitor 25 μM) | other results |
| --- | --- | --- | --- | --- | --- | --- | --- | --- | --- |
| CCCCC/C=C\C/C=C\C/C=C\C/C=C\CCCC(=O)NCCO [AEA, anandamide, reference compound] |  |  |  |  |  |  |  |  | SILAC ratio Cope ([1]; competitor 200 μM): 0.9; SILAC ratio, Tmed10 ([2]; competitor 200 μM): 1.5; SILAC ratio Kdelr1 ([3]; competitor 200 μM): 1.2; SILAC ratio, CERS2 (Q924Z4) ([4]; competitor 200 μM): 2.4; SILAC ratio, Cers2 ([4]; competitor 200 μM): 2.4; SILAC ratio, Creld1 ([5]; competitor 200 μM): 1.8; SILAC ratio Dhcr7 ([6]; competitor 200 μM): 1.5; SILAC ratio, Rtn3 ([7]; competitor 200 μM): 2.7 |
| O=C(/C=C/c1cccnc1)NCCCCC1CCN(C(=O)c2ccccc2)CC1 [FK-866, reference compound] | 1.5 | 1.1 | 1.1 | 1.2 | 1.2 | 1.3 | 0.9 | 1.1 |  |
| CN1CCN(C(=O)c2c(-c3ccccc3)c3cc([N+](=O)[O-])ccc3n2C)CC1 [KML110, (1-Methyl-5-nitro-3-phenyl-1H-indol-2-yl)(4-methylpiperazin-1-yl)methanone] |  | 1.2 | 1.1 |  | 2.2 | 1.8 | 1.2 | 1.3 |  |
| CN1CCN(C(=O)c2[nH]c3ccc([N+](=O)[O-])cc3c2-c2ccccc2)CC1 [MJN228, (4-Methylpiperazin-1-yl)(5-nitro-3-phenyl-1H-indol-2-yl)methanone] | 1.2 | 1.4 | 1.2 | 3.1 | 3.1 | 1.8 | 1.2 | 1.4 | SILAC ratio, Tmed10 ([2]; competitor 10 μM): 1.1; SILAC ratio, Tmed10 ([2]; competitor 50 μM): 1.5; SILAC ratio, Tmed10 ([2]; competitor 100 μM): 1.6; SILAC ratio Kdelr1 ([3]; competitor 10 μM): 1.1; SILAC ratio Kdelr1 ([3]; competitor 50 μM): 1.5; SILAC ratio Kdelr1 ([3]; competitor 100 μM): 1.5; SILAC ratio, Cers2 ([4]; competitor 10 μM): 2.0; SILAC ratio, Cers2 ([4]; competitor 50 μM): 5.2; SILAC ratio, Cers2 ([4]; competitor 100 μM): 6.8; SILAC ratio, Creld1 ([5]; competitor 10 μM): 1.4; SILAC ratio, Creld1 ([5]; competitor 50 μM): 2.4; SILAC ratio, Creld1 ([5]; competitor 100 μM): 4.2; SILAC ratio Dhcr7 ([6]; competitor 10 μM): 1.1; SILAC ratio Dhcr7 ([6]; competitor 50 μM): 1.5; SILAC ratio Dhcr7 ([6]; competitor 100 μM): 1.7; SILAC ratio, Rtn3 ([7]; competitor 10 μM): 1.2; SILAC ratio, Rtn3 ([7]; competitor 50 μM): 1.4; SILAC ratio, Rtn3 ([7]; competitor 100 μM): 1.7 |
| C=CCN(C)CCCCCCOc1ccc(C(=O)c2ccc(Br)cc2)c(F)c1 [Ro 48-8071, reference compound] | 1.1 | 1.0 | 1.0 | 1.6 | 1.6 | 1.4 | 0.8 | 1.2 |  |
